Measurements reported in patent US10265311B2, “Methods and compositions for treatment of disorders ameliorated by muscarinic receptor activation” (PureTech Health LLC, priority 2009, dated 2019).

What was measured:
[1] = with the anticholinergic agent glycopyrrolate; escalating amounts of RS-86; Alzheimer's Disease; cited from earlier work
[2] = test system: normal healthy volunteers; assay: Phase I double-blind randomized multiple-dose study, xanomeline alone vs xanomeline with trospium chloride: adverse event incidence; format: in vivo, human
Source text: We conducted a Phase I, double-blind, randomized multiple-dose pilot study of xanomeline administered alone compared to xanomeline administered in combination with trospium chloride in normal healthy volunteers. […] The parameters of the study were as follows:
70 total study subjects were randomized, and of these, 68 study subjects received at least one assessment on day 3, which was the first day of xanomeline administration. The demographics of the study subjects were as follows:
The incidence and number of cholinergic adverse events in the evaluable population of the study was as follows, with all p-values based on a chi-squared test, with the exception of those marked with a * which werebased on a Fisher's exact test: […]

[3] = methscopolamine given with xanomeline; Medina et al. 1997; cited from earlier work
[4] = evaluable population, xanomeline 75 mg TID, trospium 20 mg BID or placebo, 7 days

**Q.** With `CCN1C(=O)CC2(CCN(C)CC2)C1=O` [RS-86] as the compound, how does the improvement in cognition [1] read?
**A.** Its improvement in cognition is “did not result in any improvement in cognition”.

**Q.** Which “Salivation, % of subjects” value ([2]; evaluable population, 7 days) does the source give for `CCCCCCOc1nsnc1C1=CCCN(C)C1` [Xanomeline + placebo, Xanomeline] here?
**A.** Its value is 36.4%.

**Q.** What about the “Sweating, % of subjects” value ([2]; evaluable population, 7 days) of the same compound?
**A.** Its value is 48.5%.

**Q.** And the “Any cholinergic TEAEs, # of events” value [2, 4]?
**A.** The value was 64.

**Q.** What about the “Any cholinergic TEAEs, % of subjects” value [2, 4] of the same compound?
**A.** Its value is 63.6%.

**Q.** What about the “Any cholinergic TEAEs, n subjects” value [2, 4] of the same compound?
**A.** Its value is 21.

**Q.** What about the “Any cholinergic TEAEs, % of subjects” value ([2]; evaluable population, xanomeline 75 mg TID, trospium 20 mg BID or placebo, 7 days, listed as xanomeline+placebo) of the same compound?
**A.** The value was 63%.

**Q.** What about the “Any SAE, # events” value ([2]; in vivo) of the same compound?
**A.** The value was 0.

**Q.** And the “Any SAE, %” value ([2]; in vivo)?
**A.** Its value is 0.0%.

**Q.** And the “Any study drug related TEAE, # events” value ([2]; in vivo)?
**A.** The value was 92.

**Q.** And the “Any study drug related TEAE, %” value ([2]; in vivo)?
**A.** The value was 69.7%.

**Q.** And the “Max Severity of TEAE Mild, %” value ([2]; in vivo)?
**A.** The value was “(66.7) N/A %”.

**Q.** What about the “Max Severity of TEAE Moderate, %” value ([2]; in vivo) of the same compound?
**A.** Its value is “(15.2) N/A %”.

**Q.** What about the “Max Severity of TEAE Severe, %” value ([2]; in vivo) of the same compound?
**A.** Its value is “(0.0) %”.

**Q.** And the “Max severity of study drug related TEAE Mild, %” value ([2]; in vivo)?
**A.** The value was “(57/6) N/A”.

**Q.** And the “Max severity of study drug related TEAE Moderate, %” value ([2]; in vivo)?
**A.** Its value is “(12.1) N/A %”.

**Q.** What about the “Max severity of study drug related TEAE Severe, %” value ([2]; in vivo) of the same compound?
**A.** The value was “(0.0) N/A %”.

**Q.** Which “effect on syncope, a side effect observed with xanomeline” value [3] does the source give for `C[N+]1(C)[C@@H]2C[C@@H](OC(=O)[C@H](CO)c3ccccc3)C[C@H]1[C@@H]1O[C@@H]12` [methscopolamine] here?
**A.** Its value is “no effect on syncope”.
